The text below walks through data of paper PMC8392292 (Biomedicines, 2021).

Where a name gives a salt, the structure may show the parent alone. Read-outs that look alike come from different tables or passages of the source.

One test concerns the target SARS-CoV-2 RdRp (Severe acute respiratory syndrome coronavirus 2, UniProt P0DTD1). As to the kind of experiment: cell-based. It counts as cell-based. As to conditions: for inhibition at 100 µM: read-out: Inhibition % of RdRp Activity at Max. Dose; for FLuc activity (internal control): compound at the indicated concentrations; for Effect on SARS-CoV-2 RdRp activity: without nsp7 and nsp8.

A further test has as its system SARS-CoV-2. The note with it: cited from earlier work.
For test [1], the system named is SARS-CoV-2 RdRp with nsp7 and nsp8. It counts as cell-based. As to conditions: nsp7 + nsp8 or nsp8-IRES-nsp7 plasmids co-transfected, HEK293T.
[2] abbreviates: HEK-293T, max. dose 100 μM, HEK293T, 15 h.
Setting [3] is: […], mean ± standard error of the mean, read-out: IC50 of SARS-CoV-2 RdRp activity.
The mark [4] stands for this setting: representative experiment, non-linear regression graph, HEK293T, 15 h, read-out: IC50 of SARS-CoV-2 RdRp activity in the figure.
Where [5] appears, read: IC50 of SARS-CoV-2 RdRp activity.

With `Cc1cn([C@@H]2C[C@@H](O)[C@H](CO)O2)c(=O)[nH]c1=O` [Telbivudine, telbivudine], the inhibition at 100 µM at SARS-CoV-2 RdRp (setting [2]) stood at 76.9%. For the same molecule, the half-inhibitory concentration (IC50) is 45.9 ± 3.86 µM on SARS-CoV-2 RdRp (setting [3]) and 39.6 µM at SARS-CoV-2 RdRp (setting [4]).
With `C=C1[C@H](CO)[C@@H](O)C[C@@H]1n1cnc2c(=O)[nH]c(N)nc21` [Entecavir Hydrate, entecavir hydrate], the inhibition at 100 µM at SARS-CoV-2 RdRp (setting [2]) amounted to 83.1%.
As to `Cl.O[C@H]1[C@H]2c3cc4c(cc3CN3CCC(=C[C@@H]1O)[C@H]23)OCO4` [Lycorine, lycorine hydrochloride], the “FLuc activity (internal control)” value on SARS-CoV-2 RdRp (HEK293T) is given as “remained unchanged”. Besides, the values for the IC50 on SARS-CoV-2 RdRp (setting [3]), on SARS-CoV-2 RdRp (setting [4]) and in the test with SARS-CoV-2 were 1.47 ± 0.033 µM, 1.34 µM and 0.878 ± 0.022 µM, respectively.
Turning to `COc1ccc2cc1Oc1ccc(cc1)C[C@H]1c3c(cc4c(c3Oc3cc5c(cc3OC)CCN(C)[C@@H]5C2)OCO4)CCN1C` [Cepharanthine, cepharanthine], on SARS-CoV-2 RdRp (HEK-293T, max. dose 10 μM, HEK293T, 15 h), the inhibition at 10 µM was 5.84%. On SARS-CoV-2 RdRp (setting [5]), this molecule came in with an IC50 of more than 10 µM. Further, the “Effect on SARS-CoV-2 RdRp activity” value on SARS-CoV-2 RdRp (HEK293T) is “did not affect”; on SARS-CoV-2 RdRp (HEK293T, listed as cepharanthine), “did not display any inhibitory effect”. Moreover, the “Effect on SARS-CoV-2 RdRp activity with nsp7 and nsp8” value in test [1] was “did not affect”; in test [1] (listed as cepharanthine), “did not display any inhibitory effect”.
As to `N=C(N)/N=C(\N)N1CCOCC1` [Moroxydine, moroxydine HCl], the inhibition at 100 µM on SARS-CoV-2 RdRp (setting [2]) turned out to be 76.5%. Moreover, the IC50 at SARS-CoV-2 RdRp (setting [3]) worked out at 48.9 ± 14.4 µM; on SARS-CoV-2 RdRp (setting [4]), 37.1 µM.
In the case of `CC(C)(C)C(=O)OCOP(=O)(COCCn1cnc2c(N)ncnc21)OCOC(=O)C(C)(C)C` [Adefovir Dipivoxil, adefovir dipivoxil], the IC50 at SARS-CoV-2 RdRp (setting [3]) worked out at 3.78 ± 0.866 µM; on SARS-CoV-2 RdRp (setting [4]), 3.92 µM.
As for `Nc1nc(=O)n([C@@H]2CS[C@H](CO)O2)cc1F` [Emtricitabine, emtricitabine], at SARS-CoV-2 RdRp (HEK-293T), the inhibition at 100 µM is 88.2%. The IC50 against SARS-CoV-2 RdRp (setting [5]) came out at 15.4 ± 3.6 µM; on SARS-CoV-2 RdRp (IC50 of SARS-CoV-2 RdRp activity in the figure), 13.8 µM.
Consider `CO[C@H]1/C=C/O[C@@]2(C)Oc3c(C)c(O)c4c(O)c(c(/C=N/N5CCN(C)CC5)c(O)c4c3C2=O)NC(=O)/C(C)=C\C=C\[C@H](C)[C@H](O)[C@@H](C)[C@@H](O)[C@@H](C)[C@H](OC(C)=O)[C@@H]1C` [Rifampin, rifampin], for which the IC50 at SARS-CoV-2 RdRp (setting [3]) was 49.4 ± 4.02 µM; at SARS-CoV-2 RdRp (setting [4]), 30.3 µM.
Consider `CCC(CC)COC(=O)[C@H](C)N[P@](=O)(OC[C@H]1O[C@@](C#N)(c2ccc3c(N)ncnn23)[C@H](O)[C@@H]1O)Oc1ccccc1` [Remdesivir], for which the “FLuc activity (internal control)” value on SARS-CoV-2 RdRp (HEK293T) is “maintained”. The same molecule had an inhibition at 6.7 µM against SARS-CoV-2 RdRp (HEK-293T, max. dose 6.7 μM, HEK293T, 15 h) of 71%.

As usually defined, the inhibition is how much of the control response was suppressed. In general, IC50 refers to the concentration that inhibits the measured activity by half.
